Measured values taken from ChEMBL document CHEMBL1201862, “PubChem BioAssay data set” (2004).
Active and inactive are the calls of the source.

Legend:
Format in all cases: functional
[1] = cytotoxicity in HEK-293T NF-kB-Luc cells, dose response, cytotoxicity control for B/T-cell NF-kB inhibitor project, cell-based, uHTS hits (AID 489019);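 further: IC50 reflects cytotoxicity as loss of cell viability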
[2] = molecular target: T1, Sentrin-specific protease 6 (Homo sapiens, UniProt Q9GZR1);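 further: Luminescence-based dose-response confirmatory assay of SENP6 inhibition, following up an ultra-high-throughput screen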
T1 sequence (Q9GZR1 whole entry): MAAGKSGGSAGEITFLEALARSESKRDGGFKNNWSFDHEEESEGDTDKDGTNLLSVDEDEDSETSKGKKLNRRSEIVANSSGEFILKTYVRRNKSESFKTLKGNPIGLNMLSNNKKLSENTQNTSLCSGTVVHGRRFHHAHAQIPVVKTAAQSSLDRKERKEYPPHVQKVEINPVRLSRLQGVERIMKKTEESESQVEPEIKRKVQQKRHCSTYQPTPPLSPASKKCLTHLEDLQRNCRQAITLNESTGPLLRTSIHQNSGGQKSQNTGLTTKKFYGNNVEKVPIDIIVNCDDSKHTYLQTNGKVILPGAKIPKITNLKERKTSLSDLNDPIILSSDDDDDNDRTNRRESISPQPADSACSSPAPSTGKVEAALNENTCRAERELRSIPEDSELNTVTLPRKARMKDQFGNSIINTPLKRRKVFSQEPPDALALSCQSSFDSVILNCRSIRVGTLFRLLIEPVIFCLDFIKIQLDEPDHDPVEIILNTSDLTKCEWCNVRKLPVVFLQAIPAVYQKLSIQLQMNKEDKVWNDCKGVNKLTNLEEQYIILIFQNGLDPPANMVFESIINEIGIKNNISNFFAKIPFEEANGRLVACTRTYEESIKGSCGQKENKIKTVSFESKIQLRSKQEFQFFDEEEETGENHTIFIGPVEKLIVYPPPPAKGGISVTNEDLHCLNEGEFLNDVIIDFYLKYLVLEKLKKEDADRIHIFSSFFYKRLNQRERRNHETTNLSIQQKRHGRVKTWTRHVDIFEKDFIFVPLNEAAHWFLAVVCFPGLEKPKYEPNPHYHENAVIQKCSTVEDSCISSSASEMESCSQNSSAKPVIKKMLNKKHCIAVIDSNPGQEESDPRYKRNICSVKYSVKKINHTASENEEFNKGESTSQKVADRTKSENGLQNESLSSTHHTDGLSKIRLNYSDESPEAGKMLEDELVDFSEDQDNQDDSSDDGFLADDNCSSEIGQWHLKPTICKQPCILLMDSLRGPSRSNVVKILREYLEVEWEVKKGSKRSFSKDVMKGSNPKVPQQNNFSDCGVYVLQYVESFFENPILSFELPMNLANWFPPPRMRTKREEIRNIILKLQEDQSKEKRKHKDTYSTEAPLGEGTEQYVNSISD

[3] = molecular target: T2, Sentrin-specific protease 7 (Homo sapiens, UniProt Q9BQF6);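 further: Luminescence-based dose-response confirmation of ultra-high-throughput screening hits, measuring inhibition of SENP7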
T2 sequence (Q9BQF6 whole entry): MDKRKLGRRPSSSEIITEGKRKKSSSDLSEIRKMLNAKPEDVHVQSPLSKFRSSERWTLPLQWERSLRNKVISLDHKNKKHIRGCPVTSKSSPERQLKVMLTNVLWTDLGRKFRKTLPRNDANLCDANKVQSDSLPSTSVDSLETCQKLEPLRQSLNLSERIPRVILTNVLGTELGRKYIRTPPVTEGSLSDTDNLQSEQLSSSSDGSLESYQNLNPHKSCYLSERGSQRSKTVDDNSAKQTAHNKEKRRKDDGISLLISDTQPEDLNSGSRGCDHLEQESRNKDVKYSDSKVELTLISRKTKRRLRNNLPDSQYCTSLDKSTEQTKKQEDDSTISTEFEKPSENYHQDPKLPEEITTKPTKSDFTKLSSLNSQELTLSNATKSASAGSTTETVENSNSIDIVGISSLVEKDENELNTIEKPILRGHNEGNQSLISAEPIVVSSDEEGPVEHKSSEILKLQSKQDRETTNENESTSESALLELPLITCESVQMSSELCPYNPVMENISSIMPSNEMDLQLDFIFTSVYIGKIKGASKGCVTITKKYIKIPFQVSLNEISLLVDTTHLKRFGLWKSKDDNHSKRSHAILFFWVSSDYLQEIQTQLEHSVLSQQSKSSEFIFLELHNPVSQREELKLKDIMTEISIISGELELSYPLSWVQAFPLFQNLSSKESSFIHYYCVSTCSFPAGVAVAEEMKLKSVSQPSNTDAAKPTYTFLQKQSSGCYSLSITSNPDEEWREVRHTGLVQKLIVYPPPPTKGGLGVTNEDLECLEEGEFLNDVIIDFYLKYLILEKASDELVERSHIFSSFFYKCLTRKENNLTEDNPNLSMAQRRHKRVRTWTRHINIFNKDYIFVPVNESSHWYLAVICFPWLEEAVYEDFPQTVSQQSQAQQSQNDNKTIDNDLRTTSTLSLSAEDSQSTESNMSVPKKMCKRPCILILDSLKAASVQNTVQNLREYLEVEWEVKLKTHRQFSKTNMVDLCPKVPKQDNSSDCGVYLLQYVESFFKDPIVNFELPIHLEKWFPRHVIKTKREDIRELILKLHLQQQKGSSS

[4] = molecular target: T3, Replicative DNA helicase DnaB (Mycobacterium tuberculosis, UniProt P9WMR3); assay: DnaB intein splicing inhibitors, dose response, biochemical, cell-free fluorescence (AID 449749)
T3 sequence (P9WMR3 whole entry): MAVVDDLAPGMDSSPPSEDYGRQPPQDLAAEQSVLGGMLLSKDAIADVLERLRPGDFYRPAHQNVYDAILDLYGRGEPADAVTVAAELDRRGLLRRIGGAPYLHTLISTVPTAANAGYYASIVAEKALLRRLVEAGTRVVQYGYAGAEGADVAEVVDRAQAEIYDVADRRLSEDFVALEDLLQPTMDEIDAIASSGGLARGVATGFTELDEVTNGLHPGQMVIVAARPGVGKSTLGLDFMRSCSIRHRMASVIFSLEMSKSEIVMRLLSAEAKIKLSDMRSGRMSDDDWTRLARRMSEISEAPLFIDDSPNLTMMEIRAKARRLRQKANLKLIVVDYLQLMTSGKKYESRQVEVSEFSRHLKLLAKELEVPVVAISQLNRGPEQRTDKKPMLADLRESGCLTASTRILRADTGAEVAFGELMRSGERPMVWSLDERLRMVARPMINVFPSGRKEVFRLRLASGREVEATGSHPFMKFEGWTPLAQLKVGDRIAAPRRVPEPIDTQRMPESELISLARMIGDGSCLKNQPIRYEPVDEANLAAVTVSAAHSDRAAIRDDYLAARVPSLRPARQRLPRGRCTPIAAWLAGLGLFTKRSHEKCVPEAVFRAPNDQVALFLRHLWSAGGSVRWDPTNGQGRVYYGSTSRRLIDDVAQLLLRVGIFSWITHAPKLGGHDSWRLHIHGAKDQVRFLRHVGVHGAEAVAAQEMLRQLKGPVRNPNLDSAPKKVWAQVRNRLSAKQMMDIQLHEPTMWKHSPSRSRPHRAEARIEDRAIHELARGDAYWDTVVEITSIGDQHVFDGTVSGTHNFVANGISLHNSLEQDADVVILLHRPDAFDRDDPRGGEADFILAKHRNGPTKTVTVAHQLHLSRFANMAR

SMILES | IC50 [1] | IC50 [2] | IC50 [3] | AC50 [4]
N#Cc1c(NC(=O)CSc2nc[nH]n2)sc2c1CCCCC2 | > 80 µM (inactive) | 4 µM (active) | 5.65 µM (active) | 
COc1ccc(C(N)c2nccc3cc(OC)c(OC)cc23)cc1OC (centres undefined) |  |  |  | > 380 µM (inactive)
